Results as given in PMC6837341, “Evolutionarily conserved susceptibility of the mitochondrial respiratory chain to SDHI pesticides and its consequence on the impact of SDHIs on human cultured cells” (PLoS ONE, 2019).

Molecular target: T1, glycerol-3-phosphate dehydrogenase (G3PDH) (Homo sapiens, UniProt P43304)
T1 sequence (P43304 43-727): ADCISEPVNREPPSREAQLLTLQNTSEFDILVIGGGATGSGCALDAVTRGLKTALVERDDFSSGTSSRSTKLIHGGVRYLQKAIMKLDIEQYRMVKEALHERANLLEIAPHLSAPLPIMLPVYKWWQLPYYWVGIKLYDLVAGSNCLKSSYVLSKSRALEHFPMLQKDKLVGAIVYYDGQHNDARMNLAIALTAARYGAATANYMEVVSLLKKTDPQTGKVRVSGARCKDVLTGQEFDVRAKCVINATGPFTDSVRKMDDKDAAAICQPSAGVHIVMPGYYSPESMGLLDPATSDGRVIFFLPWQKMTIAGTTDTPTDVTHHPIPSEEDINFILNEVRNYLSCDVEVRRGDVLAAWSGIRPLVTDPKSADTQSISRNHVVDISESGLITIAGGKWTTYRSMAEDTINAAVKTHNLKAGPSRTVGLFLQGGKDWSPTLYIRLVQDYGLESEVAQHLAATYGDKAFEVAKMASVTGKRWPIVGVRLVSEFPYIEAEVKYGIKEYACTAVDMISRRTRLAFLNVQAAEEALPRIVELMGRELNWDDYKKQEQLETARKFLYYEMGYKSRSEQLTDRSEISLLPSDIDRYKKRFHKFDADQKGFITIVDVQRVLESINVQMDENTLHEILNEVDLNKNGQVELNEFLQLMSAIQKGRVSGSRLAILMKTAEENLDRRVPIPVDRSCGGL
Assay: Glycerol 3-phosphate quinone-DCPIP reductase (GQDR) activity
Assay type: biochemical
Conditions: up to 500 μM; not shown
Experimental: RC enzyme activities were spectrophotometrically measured using a pseudo-double-wavelength spectrophotometer (Cary 60, Agilent). Malonate-sensitive succinate quinone dichlorophenolindophenol (DCPIP) reductase (SQDR), as an indicator of the activity of the isolated SDH enzyme (isolated CII), and glycerol-3-phosphate quinone DCPIP reductase (GQDR), as a measure of the activity of the isolated glycerol-3-phosphate dehydrogenase (G3PDH), were assayed as previously described. To study the effect of SDHIs on the RC, we had to take into consideration the fact that these inhibitors act through binding to quinone-binding sites in the RC. Accordingly, we observed that the extent of the inhibitory effects of these substances varies with the addition of exogenous quinones (Fig 1). […] With this aim, we measured the malonate-sensitive succinate cytochrome c reductase (SDH+CIII), glycerol-3-phosphate cytochrome c reductase (G3PDH+CIII) and antimycin-sensitive quinol cytochrome c reductase (CIII) as previously described.

## Cn1cc(C(=O)Nc2ccc(F)cc2-c2ccc(Cl)c(Cl)c2)c(C(F)F)n1 [Bixafen, bixafen]
  Inhibitory effect on glycerol 3-phosphate quinone-DCPIP reductase: no inhibitory effect
